Reference: patent publication US11884906B1, “4D-perfused tumoroid-on-a-chip platform for personalized cancer treatment applications” (University of South Florida, priority 2019, dated 2024)

Columns and labels:
HCT116 tumoroid cells = test: Drug response of HCT116 tumoroids on FiSS, CELLTITER-GLO viability, platform 10 (Chip) vs static system (Control); type: cell-based; details: 48 hours drug treatment, microfluidic platform 10 (Chip) compared with static system (Control), FIGS. 15A-15C
Experimental: (§1) FIG. 6 depicts the results of experiments performed on platform 10 described in detail above. In a first step, microfluidic channel layer 14 is cleaned and a scaffold to be grown on platform 10 is washed. Either 3000 cells of HT29, 2000 cells of HCT116, of 3500 cells of LLC are seeded in 100 μL of a culture media 30. After 48 hours, an additional 100 μl of the culture media 30 is added to inlet well 20, and an additional 50 μL of the culture media is added to culture well 21, with no fresh media added to outlet well 22. Approximately 48 hours after the additional media is added, a drug response test is performed. All the culture media 30 is removed from culture well 21, and 300 μL of a drug dissolved media is added to culture well 21 at the control plate. […]
(§2) A test, such as a CELLTITER-GLO® test, is performed 48 hours later to quantify the viable cells in the culture. […] Cell viability was determined using a CELLTITER-GLO® assay (Promega) according to the manufacturer's protocol. Luminescence was measured in a white well-plate in a Bio-Tek Synergy H4 plate reader (BioTek). An average luminescence value for each group was plotted as a percentage of the control group. […]

HT29 tumoroid cells = test: Drug response of HT29 tumoroids on FiSS, CELLTITER-GLO viability, platform 10 (Chip) vs static system (Control); type: cell-based; details: 48 hours drug treatment, microfluidic platform 10 (Chip) compared with static system (Control), FIGS. 14A-14C
Experimental: as §1, §2

| SMILES | drug dose required on platform 10 to have the same IC50 as the static systems (HCT116 tumoroid cells) | drug dose required on platform 10 to have the same IC50 as the static systems (HT29 tumoroid cells) |
| --- | --- | --- |
| O=c1[nH]cc(F)c(=O)[nH]1 [fluorouracil] | lower drug dose | higher drug dose |
| O=C1[O][Pt]2([NH][C@@H]3CCCC[C@H]3[NH]2)[O]C1=O [oxaliplatin] | higher drug dose | higher drug dose |
